Reference: patent publication US8501787B2, “Compounds for the inhibition of angiogenesis and use thereof” (Shire Orphan Therapies GmbH, priority 2004, dated 2013)
Where two headings read alike, the source gives them in different places.

Target: T1, integrin alpha5beta1 (Homo sapiens, UniProt P05556+P08648)
T1 construct: The integrin alpha5beta1 extracellular domain Fc-fusion was expressed and purified; made in house
Assay: Alpha5beta1-Fibronectin binding assay (competitive ELISA)
Experimental: The optimal concentrations of integrin and ligand were selected from ELISA binding studies with variable concentrations of both to obtain optimal signal noise ratio for further studies. IC50 studies were performed with fixed concentration of ligand and integrin and a serial dilution of inhibitor. The plates were measured with SpectraMax Plus reader (Molecular Devices). The resulting inhibition curves were analyzed using SoftMaxPro 4.0 software, the turning point describes the IC50 value.
Fibronectin and Vitronectin were purchased from Sigma, fibrinogen from Calbiochem. (EMD Biosciences, Darmstadt, Germany) The integrin alpha5beta1 extracellular domain Fc-fusion was expressed and purified as described in (Coe, 2001, JBC, 276, 35854). Integrins alphavbeta3 and alphavbeta5 were purchased from Chemicon (Chemicon Europe, Germany) and alphaIIbbeta3 form Kordia (Kordia Life Science, Leiden, Netherlands)
Fibronectin was diluted with coating buffer (15 mM Na2CO3, 35 mM NaHCO3, pH9.6) and coated with 100 μL/well to Nunc-Immuno maxisorp plates (Nalge Nunc Europe Ltd) over night at 4° C. After discarding the coating solution plates were washed 3 times with buffer 1 ([…], pH7.6, 150 mM NaCl, 1 mM […], 1 mg/mL BSA) and blocked with 100 μL blocking buffer (3% BSA in PBS 0.1% Tween20) for 1 hour at room temperature. After washing the blocked plates (3 times) with buffer 1, integrin (50 μL) and either inhibitor (serial dilution in buffer 1) or buffer 1 (50 μL) were added to the wells and incubated for one hour at RT. Plates were then washed (3 times) with buffer 1 and incubated with 100 μL of anti-human-Fc-HRP antibody conjugate (Sigma-Aldrich, Taufkirchen, Germany) in buffer 1 for 1 hour at RT. After additional washing steps (3 times) with buffer 1 50 μL of HRP substrate solution TMB (Seramun, Germany) were added to the wells. Colour development was stopped after 3-5 minutes with 50 μL 1M H2SO4. The developed colour was measured at 450 nm and analyzed as described above.

[1] = inhibition of integrin binding to fibronectin, read-out: IC50 alpha5beta1 in nM
[2] = method of section 1.1, read-out: Group (binding activities to integrin alpha5beta1)

| IC50 [1] [nM] | IC50 [2] [nM] | Compound |
| --- | --- | --- |
| 11.3 | 10 to 500 | Cc1cc(C)c(S(=O)(=O)N[C@@H](CNC(=O)CO[C@@H]2C[C@@H](CNc3ccccn3)N(S(=O)(=O)Cc3ccccc3)C2)C(=O)O)c(C)c1 [Compound 15, 3-{2-[1-Phenylmethanesulfonyl-5-(pyridin-2-ylaminomethyl)-pyrrolidin-3-yloxy]-acetylamino}-2-(2,4,6-trimethyl-benzenesulfonylamino)-propionic acid] |
| – | 10 to 500 | Cc1cc(C)c(S(=O)(=O)N[C@@H](CNC(=O)CO[C@@H]2C[C@@H](CNc3ccccn3)N(CCCc3ccccc3)C2)C(=O)O)c(C)c1 [Compound 18, 3-{2-[1-(3-Phenyl-propyl)-5-(pyridin-2-ylaminomethyl)-pyrrolidin-3-yloxy]-acetylamino}-2-(2,4,6-trimethyl-benzenesulfonylamino)-propionic acid] |
| 6.6 | < 10 | Cc1cc(C)c(S(=O)(=O)N[C@@H](CNC(=O)CO[C@@H]2C[C@@H](CNc3ccccn3)N(C(=O)NC3CCCC3)C2)C(=O)O)c(C)c1 [Compound 20, 3-{2-[1-Cyclopentylcarbamoyl-5-(pyridin-2-ylaminomethyl)-pyrrolidin-3-yloxy]-acetylamino}-2-(2,4,6-trimethyl-benzenesulfonylamino)-propionic acid] |
| 18.1 | 10 to 500 | Cc1ccc(CNC(=O)N2C[C@H](OCC(=O)NC[C@H](NS(=O)(=O)c3c(C)cc(C)cc3C)C(=O)O)C[C@H]2CNc2ccccn2)cc1 [Compound 25, 3-{2-[1-(4-Methyl-benzylcarbamoyl)-5-(pyridin-2-ylaminomethyl)-pyrrolidin-3-yloxy]-acetylamino}-2-(2,4,6-trimethyl-benzenesulfonylamino)-propionic acid] |
| – | < 10 | Cc1cc(C)c(S(=O)(=O)N[C@@H](CNC(=O)CO[C@@H]2C[C@@H](CNc3ccccn3)N(C(=O)CC(C)(C)C)C2)C(=O)O)c(C)c1 [Compound 31, 3-{2-[1-(3,3-Dimethyl-butyryl)-5-(pyridin-2-ylaminomethyl)-pyrrolidin-3-yloxy]-acetylamino}-2-(2,4,6-trimethyl-benzenesulfonylamino)-propionic acid] |
| – | 10 to 500 | Cc1cc(C)c(S(=O)(=O)N[C@@H](CNC(=O)CO[C@@H]2C[C@@H](CNc3ccccn3)N(C(=O)CC3CCCC3)C2)C(=O)O)c(C)c1 [Compound 35, 3-{2-[1-(2-Cyclopentyl-acetyl)-5-(pyridin-2-ylaminomethyl)-pyrrolidin-3-yloxy]-acetylamino}-2-(2,4,6-trimethyl-benzenesulfonylamino)-propionic acid] |
| – | 10 to 500 | COc1cccc(CC(=O)N2C[C@H](OCC(=O)NC[C@H](NS(=O)(=O)c3c(C)cc(C)cc3C)C(=O)O)C[C@H]2CNc2ccccn2)c1 [Compound 36, 3-{2-[1-[2-(3-Methoxy-phenyl)-acetyl]-5-(pyridin-2-ylaminomethyl)-pyrrolidin-3-yloxy]-acetylamino}-2-(2,4,6-trimethyl-benzenesulfonylamino)-propionic acid] |
| 11.9 | 10 to 500 | CCC(=O)N1C[C@H](OCC(=O)NC[C@H](NS(=O)(=O)c2c(C)cc(C)cc2C)C(=O)O)C[C@H]1CNc1ccccn1 [Compound 38, 3-{2-[1-Propionyl-5-(pyridin-2-ylaminomethyl)-pyrrolidin-3-yloxy]-acetylamino}-2-(2,4,6-trimethyl-benzenesulfonylamino)-propionic acid] |
| – | < 10 | Cc1cc(C)c(S(=O)(=O)N[C@@H](CNC(=O)CO[C@@H]2C[C@@H](CNc3ccccn3)N(C(=O)OCC(C)C)C2)C(=O)O)c(C)c1 [Compound 41, 4-{[2-Carboxy-2-(2,4,6-trimethyl-benzenesulfonylamino)-ethylcarbamoyl]-methoxy}-2-(pyridin-2-ylaminomethyl)-pyrrolidine-1-carboxylic acid isobutyl ester] |
| 5.8 | < 10 | C#CCOC(=O)N1C[C@H](OCC(=O)NC[C@H](NS(=O)(=O)c2c(C)cc(C)cc2C)C(=O)O)C[C@H]1CNc1ccccn1 [Compound 44, 4-{[2-Carboxy-2-(2,4,6-trimethyl-benzenesulfonylamino)-ethylcarbamoyl]-methoxy}-2-(pyridin-2-ylaminomethyl)-pyrrolidine-1-carboxylic acid prop-2-ynyl ester] |
| – | 10 to 500 | Cc1cc(C)c(S(=O)(=O)N[C@@H](CNC(=O)CO[C@@H]2C[C@@H](CNc3ccccn3)N(C(=S)Nc3ccc(-c4c5ccc(=O)cc-5oc5cc(O)ccc45)c(C(=O)O)c3)C2)C(=O)O)c(C)c1 [Compound 61, 5-{[4-{[2-Carboxy-2-(2,4,6-trimethyl-benzenesulfonylamino)-ethylcarbamoyl]-methoxy}-2-(pyridin-2-ylaminomethyl)-pyrrolidine-1-carbothioyl]-amino}-2-(6-hydroxy-3-oxo-3H-xanthen-9-yl)-benzoic acid] |
| – | > 500 | CS(=O)(=O)NC(CNC(=O)COC1CC(CNc2ccccn2)N(C(=O)OCc2ccccc2)C1)C(=O)O (centres unmarked) [Compound 69, 4-[(2-Carboxy-2-methanesulfonylamino-ethylcarbamoyl)-methoxy]-2-(pyridin-2-ylaminomethyl)-pyrrolidine-1-carboxylic acid benzyl ester] |
| – | 10 to 500 | O=C(CO[C@@H]1C[C@@H](CNc2ccccn2)N(C(=O)OCc2ccccc2)C1)NC[C@H](NC(=O)CCc1ccccc1)C(=O)O [Compound 74, 4-{[2-Carboxy-2-(3-phenyl-propionylamino)-ethylcarbamoyl]-methoxy}-2-(pyridin-2-ylaminomethyl)-pyrrolidine-1-carboxylic acid benzyl ester] |
| – | 10 to 500 | O=C(CO[C@@H]1C[C@@H](CNc2ccccn2)N(C(=O)OCc2ccccc2)C1)NC[C@H](NC(=O)Nc1ccc(-c2ccccc2)cc1)C(=O)O [Compound 80, 4-{[2-(3-Biphenyl-4-yl-ureido)-2-carboxy-ethylcarbamoyl]-methoxy}-2-(pyridin-2-ylaminomethyl)-pyrrolidine-1-carboxylic acid benzyl ester] |
| – | > 500 | N[C@@H](CNC(=O)CO[C@@H]1C[C@@H](CNc2ccccn2)N(C(=O)OCc2ccccc2)C1)C(=O)O [Compound 81, 4-[(2-Amino-2-carboxy-ethylcarbamoyl)-methoxy]-2-(pyridin-2-ylaminomethyl)-pyrrolidine-1-carboxylic acid benzyl ester] |
| – | > 500 | Cc1cc(C)c(CNC(CNC(=O)COC2CC(CNc3ccccn3)N(C(=O)OCc3ccccc3)C2)C(=O)O)c(C)c1 (centres unmarked) [Compound 82, 4-{[2-Carboxy-2-(2,4,6-trimethyl-benzylamino)-ethylcarbamoyl]-methoxy}-2-(pyridin-2-ylaminomethyl)-pyrrolidine-1-carboxylic acid benzyl ester] |
| – | > 500 | O=C(CO[C@@H]1C[C@@H](CNc2ccccn2)N(C(=O)OCc2ccccc2)C1)NC[C@H](NC(=O)c1cc(C(F)(F)F)cc(C(F)(F)F)c1)C(=O)O [Compound 86, 4-{[2-(3,5-Bis-trifluoromethyl-benzoylamino)-2-carboxy-ethylcarbamoyl]-methoxy}-2-(pyridin-2-ylaminomethyl)-pyrrolidine-1-carboxylic acid benzyl ester] |
| – | < 10 | COc1cccc(OC)c1C(=O)N[C@@H](CNC(=O)CO[C@@H]1C[C@@H](CNc2ccccn2)N(C(=O)OCc2ccccc2)C1)C(=O)O [Compound 90, 4-{[2-Carboxy-2-(2,6-dimethoxy-benzoylamino)-ethylcarbamoyl]-methoxy}-2-(pyridin-2-ylaminomethyl)-pyrrolidine-1-carboxylic acid benzyl ester] |
| – | < 10 | O=C(CO[C@@H]1C[C@@H](CNc2ccccn2)N(C(=O)OCc2ccccc2)C1)NC[C@H](NC(=O)C1CCCCC1)C(=O)O [Compound 91, 4-{[2-Carboxy-2-(cyclohexanecarbonyl-amino)-ethylcarbamoyl]-methoxy}-2-(pyridin-2-ylaminomethyl)-pyrrolidine-1-carboxylic acid benzyl ester] |
| – | < 10 | Cc1cccc(C)c1C(=O)N[C@@H](CNC(=O)CO[C@@H]1C[C@@H](CNc2ccccn2)N(C(=O)OCc2ccccc2)C1)C(=O)O [Compound 92, 4-{[2-Carboxy-2-(2,6-dimethyl-benzoylamino)-ethylcarbamoyl]-methoxy}-2-(pyridin-2-ylaminomethyl)-pyrrolidine-1-carboxylic acid benzyl ester] |

| Compound | IC50 [1] [nM] | IC50 [2] [nM] |
| --- | --- | --- |
| Cc1cc(C)c(S(=O)(=O)N[C@@H](CNC(=O)CO[C@@H]2C[C@@H](CNc3ccccn3)N(C(=O)C(F)(F)C(F)(F)C(F)(F)C(F)(F)C(F)(F)C(F)(F)C(F)(F)F)C2)C(=O)O)c(C)c1 [Compound 63, 3-{2-[1-(2,2,3,3,4,4,5,5,6,6,7,7,8,8,8-Pentadecafluoro-octanoyl)-5-(pyridin-2-ylaminomethyl)-pyrrolidin-3-yloxy]-acetylamino}-2-(2,4,6-trimethyl-benzenesulfonylamino)-propionic acid] | – | > 500 |
